Experimental data as given in patent publication US20230227427A1, “IL-17A MODULATORS” (SANOFI, priority 2010, published 2023).

Biological target: T1, human recombinant IL-17A (Homo sapiens, UniProt Q16552)
T1 construct: purchased R&D Systems 7955-IL/CF
T1 sequence (Q16552 24-155): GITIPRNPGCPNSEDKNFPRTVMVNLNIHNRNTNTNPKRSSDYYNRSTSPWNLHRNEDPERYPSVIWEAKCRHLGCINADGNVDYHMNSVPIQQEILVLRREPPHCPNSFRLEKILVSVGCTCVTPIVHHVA
Assay: IL-17A AlphaLISA assay (block binding of IL-17A to its receptor IL-17RA)
Conditions: compounds pre-incubated with the IL-17A for 24 h at room temperature; read-out: AlphaLISA pIC50 (converted)
Method: The ability of the compounds to block binding of IL-17A to its receptor, IL-17RA, was analysed in a competition assay using AlphaLISA technology (Perkin Elmer). The assay is a bead based AlphaLISA where the IL-17RA is captured on the acceptor bead via an Fc tag and IL-17A is captured on the streptavidin donor bead via a biotinylated anti-IL17A antibody.
Assay buffer was prepared by adding 0.05% Tween-20 (v/v) and 0.1% BSA to Phosphate Buffered Saline (PBS). The assay was carried out in 384-well white low volume plates (Corning 4512). 10 µL of a 7.5 nM stock of human recombinant IL-17A (R&D Systems 7955-IL/CF) diluted in assay buffer was dispensed into the assay plate and compounds or DMSO vehicle control were added in a volume of 75 nL using a D300 dispenser (Hewlett Packard). The compounds were pre-incubated with the IL-17A for 24 h at room temperature (or for 30 min, where indicated by * in Table A below) prior to addition of 5 μL of a 5 nM stock of human recombinant IL-17RA/Fc chimera (R&D Systems 177-IR-100) diluted in assay buffer. The IL-17A was incubated with the receptor for a further 90 minutes at room temperature before addition of 5 μL of a mixture of anti-human Fc IgG acceptor beads (75 μg/mL, Perkin Elmer AL103C) and anti-IL-17A biotin conjugated antibody (5 nM, Enzo Life Sciences, ENZ-ABS278-0100) in assay buffer. After a further 30 min incubation at room temperature, 5 μL of streptavidin donor beads ([…], Perkin Elmer 6760002S) were added and the plate was incubated for 3 h in the dark.
The luminescence signal was measured using an Enspire plate reader (Perkin Elmer) with excitation at 680 nm and emission at 615 nm. Data were analysed using GraphPad Prism and fitted to a 4-parameter logistic equation. The IC50 values were calculated using the DMSO vehicle as the negative control and a high concentration (6 μM) of a reference IL-17A inhibitor as the positive control.
Activity of the Example compounds is reported as a PIC50 value in Table A.

| IC50 [nM] | SMILES |
| --- | --- |
| 158 | Cn1nccc1C(=O)N[C@H](C(=O)Nc1ccc(-c2ccc(=O)n(C)n2)c(F)c1)C(c1ccccc1)c1ccccc1 [Example 48, (S)—N-(1-((3-fluoro-4-(1-methyl-6-oxo-1,6-dihydropyridazin-3-yl)phenyl)amino)-1-oxo-3,3-diphenylpropan-2-yl)-1-methyl-1H-pyrazole-5-carboxamide] |
| 100 | Cn1nccc1C(=O)N[C@H](C(=O)Nc1ccc(-c2ccc(=O)[nH]c2)cc1)C(c1ccccc1)c1ccccc1 [Example 49, (S)-1-methyl-N-(1-oxo-1-((4-(6-oxo-1,6-dihydropyridin-3-yl)phenyl)amino)-3,3-diphenylpropan-2-yl)-1H-pyrazole-5-carboxamide] |
| 39.8 | Cc1cc(=O)[nH]cc1-c1ccc(NC(=O)[C@@H](NC(=O)c2ccnn2C)C(c2ccccc2)c2ccccc2)cc1 [Example 50, (S)-1-methyl-N-(1-((4-(4-methyl-6-oxo-1,6-dihydropyridin-3-yl)phenyl)amino)-1-oxo-3,3-diphenylpropan-2-yl)-1H-pyrazole-5-carboxamide] |
| 25.1 | Cn1nccc1C(=O)N[C@H](C(=O)Nc1ccc(-c2ccc(=O)n(C)c2)cc1)C(c1ccccc1)c1ccccc1 [Example 51, (S)-1-methyl-N-(1-((4-(1-methyl-6-oxo-1,6-dihydropyridin-3-yl)phenyl)amino)-1-oxo-3,3-diphenylpropan-2-yl)-1H-pyrazole-5-carboxamide] |
| 12.6 | Cn1nccc1C(=O)N[C@H](C(=O)Nc1ccc(-c2c[nH]c(=O)c3[nH]ccc23)cc1)C(c1ccccc1)c1ccccc1 [Example 52, (S)-1-methyl-N-(1-oxo-1-((4-(7-oxo-6,7-dihydro-1H-pyrrolo[2,3-c]pyridin-4-yl)phenyl)amino)-3,3-diphenylpropan-2-yl)-1H-pyrazole-5-carboxamide] |
| 316 | Cc1c(-c2ccc(NC(=O)[C@@H](NC(=O)c3ccnn3C)C(c3ccccc3)c3ccccc3)cc2C(F)(F)F)ccc(=O)n1C [Example 54, (S)—N-(1-((4-(1,2-dimethyl-6-oxo-1,6-dihydropyridin-3-yl)-3-(trifluoromethyl)phenyl)amino)-1-oxo-3,3-diphenylpropan-2-yl)-1-methyl-1H-pyrazole-5-carboxamide] |
| 100 | Cc1cc(-c2ccc(NC(=O)[C@@H](NC(=O)c3ccnn3C)C(c3ccccc3)c3ccccc3)cc2F)c(C)cn1 [Example 56, (S)—N-(1-((4-(2,5-dimethylpyridin-4-yl)-3-fluorophenyl)amino)-1-oxo-3,3-diphenylpropan-2-yl)-1-methyl-1H-pyrazole-5-carboxamide] |
| 126 | Cc1nccc(-c2ccc(NC(=O)[C@@H](NC(=O)c3ccnn3C)C(c3ccccc3)c3ccccc3)cc2F)c1C [Example 57, (S)—N-(1-((4-(2,3-dimethylpyridin-4-yl)-3-fluorophenyl)amino)-1-oxo-3,3-diphenylpropan-2-yl)-1-methyl-1H-pyrazole-5-carboxamide] |
| 316 | Cn1nccc1C(=O)N[C@H](C(=O)Nc1ccc(-c2ccc(=O)[nH]n2)c(F)c1)C(c1ccccc1)c1ccccc1 [Example 58, (S)—N-(1-((3-fluoro-4-(6-oxo-1,6-dihydropyridazin-3-yl)phenyl)amino)-1-oxo-3,3-diphenylpropan-2-yl)-1-methyl-1H-pyrazole-5-carboxamide] |
| 794 | Cn1nccc1C(=O)N[C@H](C(=O)Nc1ccc(-c2cn[nH]c2)c(F)c1)C(c1ccccc1)c1ccccc1 [Example 62, (S)—N-(1-((3-fluoro-4-(1H-pyrazol-4-yl)phenyl)amino)-1-oxo-3,3-diphenylpropan-2-yl)-1-methyl-1H-pyrazole-5-carboxamide] |
| 158 | Cn1nccc1C(=O)N[C@H](C(=O)Nc1ccc(-c2cnc(=O)n(C)c2)c(F)c1)C(c1ccccc1)c1ccccc1 [Example 63, (S)—N-(1-((3-fluoro-4-(1-methyl-2-oxo-1,2-dihydropyrimidin-5-yl)phenyl)amino)-1-oxo-3,3-diphenylpropan-2-yl)-1-methyl-1H-pyrazole-5-carboxamide] |
| 398 | Cn1nccc1C(=O)N[C@H](C(=O)Nc1ccc(-c2cnc(=O)[nH]c2)c(F)c1)C(c1ccccc1)c1ccccc1 [Example 64, (S)—N-(1-((3-fluoro-4-(2-oxo-1,2-dihydropyrimidin-5-yl)phenyl)amino)-1-oxo-3,3-diphenylpropan-2-yl)-1-methyl-1H-pyrazole-5-carboxamide] |
| 50.1 | Cc1n[nH]cc1-c1ccc(NC(=O)[C@@H](NC(=O)c2ccnn2C)C(c2ccccc2)c2ccccc2)cc1F [Example 65, (S)—N-(1-((3-fluoro-4-(3-methyl-1H-pyrazol-4-yl)phenyl)amino)-1-oxo-3,3-diphenylpropan-2-yl)-1-methyl-1H-pyrazole-5-carboxamide] |
| 316 | Cn1nccc1C(=O)N[C@H](C(=O)Nc1ccc(-c2cn[nH]c(=O)c2)c(F)c1)C(c1ccccc1)c1ccccc1 [Example 70, (S)—N-(1-((3-fluoro-4-(6-oxo-1,6-dihydropyridazin-4-yl)phenyl)amino)-1-oxo-3,3-diphenylpropan-2-yl)-1-methyl-1H-pyrazole-5-carboxamide] |

Second part, the molecule before the results:

| SMILES | IC50 [nM] |
| --- | --- |
| COc1cc(NC(=O)[C@@H](NC(=O)c2ccnn2C)C(c2ccccc2)c2ccccc2)ccc1-c1ccncc1CO [Example 53, (S)—N-(1-((4-(3-(hydroxymethyl)pyridin-4-yl)-3-methoxyphenyl)amino)-1-oxo-3,3-diphenylpropan-2-yl)-1-methyl-1H-pyrazole-5-carboxamide] | 251 |
| Cc1cncc(C)c1-c1ccc(NC(=O)[C@@H](NC(=O)c2ccnn2C)C(c2ccccc2)c2ccccc2)cc1Cl [Example 55, (S)—N-(1-((3-chloro-4-(3,5-dimethylpyridin-4-yl)phenyl)amino)-1-oxo-3,3-diphenylpropan-2-yl)-1-methyl-1H-pyrazole-5-carboxamide] | 100 |
| CCn1nccc1C(=O)N[C@H](C(=O)Nc1ccc(-c2c[nH]nc2C)c(F)c1)C(c1ccccc1)c1ccccc1 [Example 59, (S)-1-ethyl-N-(1-((3-fluoro-4-(3-methyl-1H-pyrazol-4-yl)phenyl)amino)-1-oxo-3,3-diphenylpropan-2-yl)-1H-pyrazole-5-carboxamide] | 100 |
| Cc1noc(C)c1-c1ccc(NC(=O)[C@@H](NC(=O)c2ccnn2C)C(c2ccccc2)c2ccccc2)cc1F [Example 60, (S)—N-(1-((4-(3,5-dimethylisoxazol-4-yl)-3-fluorophenyl)amino)-1-oxo-3,3-diphenylpropan-2-yl)-1-methyl-1H-pyrazole-5-carboxamide] | 39.8 |
| CCn1nccc1C(=O)N[C@H](C(=O)Nc1ccc(-c2c(C)noc2C)c(F)c1)C(c1ccccc1)c1ccccc1 [Example 61, (S)—N-(1-((4-(3,5-dimethylisoxazol-4-yl)-3-fluorophenyl)amino)-1-oxo-3,3-diphenylpropan-2-yl)-1-ethyl-1H-pyrazole-5-carboxamide] | 39.8 |
| Cn1nccc1C(=O)N[C@H](C(=O)Nc1ccc(-c2c[nH]c(=O)c3cccnc23)c(F)c1)C(c1ccccc1)c1ccccc1 [Example 66, (S)—N-(1-((3-fluoro-4-(5-oxo-5,6-dihydro-1,6-naphthyridin-8-yl)phenyl)amino)-1-oxo-3,3-diphenylpropan-2-yl)-1-methyl-1H-pyrazole-5-carboxamide] | 25.1 |
| CCn1nccc1C(=O)N[C@H](C(=O)Nc1ccc(-c2cn[nH]c(=O)c2)c(F)c1)C(c1ccccc1)c1ccccc1 [Example 67, (S)-1-ethyl-N-(1-((3-fluoro-4-(6-oxo-1,6-dihydropyridazin-4-yl)phenyl)amino)-1-oxo-3,3-diphenylpropan-2-yl)-1H-pyrazole-5-carboxamide] | 398 |
| Cn1nccc1C(=O)N[C@H](C(=O)Nc1ccc(-c2c[nH]c(=O)c3[nH]ccc23)c(F)c1)C(c1ccccc1)c1ccccc1 [Example 68, (S)—N-(1-((3-fluoro-4-(7-oxo-6,7-dihydro-1H-pyrrolo[2,3-c]pyridin-4-yl)phenyl)amino)-1-oxo-3,3-diphenylpropan-2-yl)-1-methyl-1H-pyrazole-5-carboxamide] | 7.94 |
| Cn1nccc1C(=O)N[C@H](C(=O)Nc1ccc(-c2c[nH]c(=O)c3[nH]cnc23)c(F)c1)C(c1ccccc1)c1ccccc1 [Example 69, (S)—N-(1-((3-fluoro-4-(4-oxo-4,5-dihydro-3H-imidazo[4,5-c]pyridin-7-yl)phenyl)amino)-1-oxo-3,3-diphenylpropan-2-yl)-1-methyl-1H-pyrazole-5-carboxamide] | 79.4 |
